According to patent US20140348819A1, “Methods of Treating Cancer” (Dana-Farber Cancer Institute, Inc., priority 2011, published 2014):

Tested on: six V600E BRAF melanoma cell lines
Test: Screening of recombinant RTK ligands for ability to confer resistance to BRAFi (PLX4720) or MEKi (PD184352) (Table 4)
Assay type: cell-based, human
Design: ability of recombinant RTK ligand to confer resistance / ability of recombinant RTK ligand to confer resistance (screening value): scale not given here
Protocol: HGF is the only one that can substantially confer drug resistance to the cell lines.
The complexity of the tumor microenvironment is much greater than an in vitro co-culture system. Therefore, the inventors explored whether the activation of other RTKs could result in a similar resistance as that observed with the activation of MET. To this end, six V600E BRAF melanoma cell lines were tested for their resistance to either BRAFi (PLX4720) or MEKi (PD184352) after the addition of 22 RTK ligands that have the potential of activating almost all known RTKs. […] The activation of a selected subset of these RTKs was confirmed by western blotting and by high throughput tyrosine kinase phosphorylation profiling.

[1] = A2058, PD184352 - 1 uM, ligand 1.6 ng/ml
[2] = A2058, PD184352 - 1 uM, ligand 6.25 ng/ml
[3] = A2058, PD184352 - 1 uM, ligand 25 ng/ml
[4] = A2058, PD184352 - 1 uM, ligand 100 ng/ml
[5] = A2058, PLX4720 - 2 uM, ligand 1.6 ng/ml
[6] = A2058, PLX4720 - 2 uM, ligand 6.25 ng/ml
[7] = A2058, PLX4720 - 2 uM, ligand 25 ng/ml
[8] = A2058, PLX4720 - 2 uM, ligand 100 ng/ml
[9] = C32, PD184352 - 1 uM, ligand 1.6 ng/ml
[10] = C32, PD184352 - 1 uM, ligand 6.25 ng/ml
[11] = C32, PD184352 - 1 uM, ligand 25 ng/ml
[12] = C32, PD184352 - 1 uM, ligand 100 ng/ml
[13] = C32, PLX4720 - 2 uM, ligand 1.6 ng/ml
[14] = C32, PLX4720 - 2 uM, ligand 6.25 ng/ml
[15] = C32, PLX4720 - 2 uM, ligand 25 ng/ml
[16] = C32, PLX4720 - 2 uM, ligand 100 ng/ml
[17] = Colo 829, PD184352 - 1 uM, ligand 1.6 ng/ml
[18] = Colo 829, PD184352 - 1 uM, ligand 6.25 ng/ml
[19] = Colo 829, PD184352 - 1 uM, ligand 25 ng/ml
[20] = Colo 829, PD184352 - 1 uM, ligand 100 ng/ml
[21] = Colo 829, PLX4720 - 2 uM, ligand 1.6 ng/ml
[22] = Colo 829, PLX4720 - 2 uM, ligand 6.25 ng/ml
[23] = Colo 829, PLX4720 - 2 uM, ligand 25 ng/ml
[24] = Colo 829, PLX4720 - 2 uM, ligand 100 ng/ml
[25] = G-361, PD184352 - 1 uM, ligand 1.6 ng/ml
[26] = G-361, PD184352 - 1 uM, ligand 6.25 ng/ml
[27] = G-361, PD184352 - 1 uM, ligand 25 ng/ml
[28] = G-361, PD184352 - 1 uM, ligand 100 ng/ml
[29] = G-361, PLX4720 - 2 uM, ligand 1.6 ng/ml
[30] = G-361, PLX4720 - 2 uM, ligand 6.25 ng/ml
[31] = G-361, PLX4720 - 2 uM, ligand 25 ng/ml
[32] = G-361, PLX4720 - 2 uM, ligand 100 ng/ml
[33] = SK-MEL-5, PD184352 - 1 uM, ligand 1.6 ng/ml
[34] = SK-MEL-5, PD184352 - 1 uM, ligand 6.25 ng/ml
[35] = SK-MEL-5, PD184352 - 1 uM, ligand 25 ng/ml
[36] = SK-MEL-5, PD184352 - 1 uM, ligand 100 ng/ml
[37] = SK-MEL-5, PLX4720 - 2 uM, ligand 1.6 ng/ml
[38] = SK-MEL-5, PLX4720 - 2 uM, ligand 6.25 ng/ml
[39] = SK-MEL-5, PLX4720 - 2 uM, ligand 25 ng/ml
[40] = SK-MEL-5, PLX4720 - 2 uM, ligand 100 ng/ml
[41] = SK-MEL-28, PD184352 - 1 uM, ligand 1.6 ng/ml
[42] = SK-MEL-28, PD184352 - 1 uM, ligand 6.25 ng/ml
[43] = SK-MEL-28, PD184352 - 1 uM, ligand 25 ng/ml
[44] = SK-MEL-28, PD184352 - 1 uM, ligand 100 ng/ml
[45] = SK-MEL-28, PLX4720 - 2 uM, ligand 1.6 ng/ml
[46] = SK-MEL-28, PLX4720 - 2 uM, ligand 6.25 ng/ml
[47] = SK-MEL-28, PLX4720 - 2 uM, ligand 25 ng/ml
[48] = SK-MEL-28, PLX4720 - 2 uM, ligand 100 ng/ml

FGF1
ability of recombinant RTK ligand to confer resistance (A2058, PD184352 - 1 uM, ligand 0.4 ng/ml): 1.04 | ability of recombinant RTK ligand to confer resistance [1]: 1.05 | ability of recombinant RTK ligand to confer resistance [2]: 1.04 | ability of recombinant RTK ligand to confer resistance [3]: 1.12 | ability of recombinant RTK ligand to confer resistance [4]: 1.19 | ability of recombinant RTK ligand to confer resistance (A2058, PLX4720 - 2 uM, ligand 0.4 ng/ml): 1.02 | ability of recombinant RTK ligand to confer resistance [5]: 1.01 | ability of recombinant RTK ligand to confer resistance [6]: 0.96 | ability of recombinant RTK ligand to confer resistance [7]: 1.05 | ability of recombinant RTK ligand to confer resistance [8]: 1.11 | ability of recombinant RTK ligand to confer resistance (C32, PD184352 - 1 uM, ligand 0.4 ng/ml): 1.01 | ability of recombinant RTK ligand to confer resistance [9]: 1.04 | ability of recombinant RTK ligand to confer resistance [10]: 1.03 | ability of recombinant RTK ligand to confer resistance [11]: 1.02 | ability of recombinant RTK ligand to confer resistance [12]: 0.97 | ability of recombinant RTK ligand to confer resistance (C32, PLX4720 - 2 uM, ligand 0.4 ng/ml): 1.11 | ability of recombinant RTK ligand to confer resistance [13]: 1.10 | ability of recombinant RTK ligand to confer resistance [14]: 1.08 | ability of recombinant RTK ligand to confer resistance [15]: 0.93 | ability of recombinant RTK ligand to confer resistance [16]: 1.00 | ability of recombinant RTK ligand to confer resistance (Colo 829, PD184352 - 1 uM, ligand 0.4 ng/ml): 1.02 | ability of recombinant RTK ligand to confer resistance [17]: 1.11 | ability of recombinant RTK ligand to confer resistance [18]: 1.00 | ability of recombinant RTK ligand to confer resistance [19]: 1.08 | ability of recombinant RTK ligand to confer resistance [20]: 1.12 | ability of recombinant RTK ligand to confer resistance (Colo 829, PLX4720 - 2 uM, ligand 0.4 ng/ml): 0.99 | ability of recombinant RTK ligand to confer resistance [21]: 1.09 | ability of recombinant RTK ligand to confer resistance [22]: 1.02 | ability of recombinant RTK ligand to confer resistance [23]: 1.07 | ability of recombinant RTK ligand to confer resistance [24]: 1.06 | ability of recombinant RTK ligand to confer resistance (G-361, PD184352 - 1 uM, ligand 0.4 ng/ml): 0.99 | ability of recombinant RTK ligand to confer resistance [25]: 1.09 | ability of recombinant RTK ligand to confer resistance [26]: 0.99 | ability of recombinant RTK ligand to confer resistance [27]: 1.08 | ability of recombinant RTK ligand to confer resistance [28]: 1.04 | ability of recombinant RTK ligand to confer resistance (G-361, PLX4720 - 2 uM, ligand 0.4 ng/ml): 0.96 | ability of recombinant RTK ligand to confer resistance [29]: 0.95 | ability of recombinant RTK ligand to confer resistance [30]: 0.92 | ability of recombinant RTK ligand to confer resistance [31]: 0.89 | ability of recombinant RTK ligand to confer resistance [32]: 1.08 | ability of recombinant RTK ligand to confer resistance (SK-MEL-5, PD184352 - 1 uM, ligand 0.4 ng/ml): 0.98 | ability of recombinant RTK ligand to confer resistance [33]: 1.07 | ability of recombinant RTK ligand to confer resistance [34]: 1.14 | ability of recombinant RTK ligand to confer resistance [35]: 1.17 | ability of recombinant RTK ligand to confer resistance [36]: 1.36 | ability of recombinant RTK ligand to confer resistance (SK-MEL-5, PLX4720 - 2 uM, ligand 0.4 ng/ml): 1.01 | ability of recombinant RTK ligand to confer resistance [37]: 1.12 | ability of recombinant RTK ligand to confer resistance [38]: 1.12 | ability of recombinant RTK ligand to confer resistance [39]: 1.09 | ability of recombinant RTK ligand to confer resistance [40]: 1.28 | ability of recombinant RTK ligand to confer resistance (SK-MEL-28, PD184352 - 1 uM, ligand 0.4 ng/ml): 1.05 | ability of recombinant RTK ligand to confer resistance [41]: 0.87 | ability of recombinant RTK ligand to confer resistance [42]: 0.90 | ability of recombinant RTK ligand to confer resistance [43]: 0.92 | ability of recombinant RTK ligand to confer resistance [44]: 1.06 | ability of recombinant RTK ligand to confer resistance (SK-MEL-28, PLX4720 - 2 uM, ligand 0.4 ng/ml): 1.00 | ability of recombinant RTK ligand to confer resistance [45]: 1.02 | ability of recombinant RTK ligand to confer resistance [46]: 1.10 | ability of recombinant RTK ligand to confer resistance [47]: 0.98 | ability of recombinant RTK ligand to confer resistance [48]: 1.08

neuregulin 1
ability of recombinant RTK ligand to confer resistance [1]: 1.04 | ability of recombinant RTK ligand to confer resistance [2]: 1.08 | ability of recombinant RTK ligand to confer resistance [3]: 1.14 | ability of recombinant RTK ligand to confer resistance [4]: 1.18 | ability of recombinant RTK ligand to confer resistance (A2058, PD184352 - 1 uM, ligand 400 ng/ml): 1.27 | ability of recombinant RTK ligand to confer resistance [5]: 1.05 | ability of recombinant RTK ligand to confer resistance [6]: 1.07 | ability of recombinant RTK ligand to confer resistance [7]: 1.12 | ability of recombinant RTK ligand to confer resistance [8]: 1.09 | ability of recombinant RTK ligand to confer resistance (A2058, PLX4720 - 2 uM, ligand 400 ng/ml): 1.22 | ability of recombinant RTK ligand to confer resistance [9]: 1.12 | ability of recombinant RTK ligand to confer resistance [10]: 1.20 | ability of recombinant RTK ligand to confer resistance [11]: 1.24 | ability of recombinant RTK ligand to confer resistance [12]: 1.52 | ability of recombinant RTK ligand to confer resistance (C32, PD184352 - 1 uM, ligand 400 ng/ml): 1.32 | ability of recombinant RTK ligand to confer resistance [13]: 1.01 | ability of recombinant RTK ligand to confer resistance [14]: 1.07 | ability of recombinant RTK ligand to confer resistance [15]: 1.10 | ability of recombinant RTK ligand to confer resistance [16]: 1.20 | ability of recombinant RTK ligand to confer resistance (C32, PLX4720 - 2 uM, ligand 400 ng/ml): 1.22 | ability of recombinant RTK ligand to confer resistance [17]: 1.10 | ability of recombinant RTK ligand to confer resistance [18]: 1.04 | ability of recombinant RTK ligand to confer resistance [19]: 1.11 | ability of recombinant RTK ligand to confer resistance [20]: 1.37 | ability of recombinant RTK ligand to confer resistance (Colo 829, PD184352 - 1 uM, ligand 400 ng/ml): 1.21 | ability of recombinant RTK ligand to confer resistance [21]: 0.03 | ability of recombinant RTK ligand to confer resistance [22]: 0.98 | ability of recombinant RTK ligand to confer resistance [23]: 1.06 | ability of recombinant RTK ligand to confer resistance [24]: 1.24 | ability of recombinant RTK ligand to confer resistance (Colo 829, PLX4720 - 2 uM, ligand 400 ng/ml): 1.17 | ability of recombinant RTK ligand to confer resistance [25]: 0.93 | ability of recombinant RTK ligand to confer resistance [26]: 0.96 | ability of recombinant RTK ligand to confer resistance [27]: 0.98 | ability of recombinant RTK ligand to confer resistance [28]: 1.01 | ability of recombinant RTK ligand to confer resistance (G-361, PD184352 - 1 uM, ligand 400 ng/ml): 1.17 | ability of recombinant RTK ligand to confer resistance [29]: 0.87 | ability of recombinant RTK ligand to confer resistance [30]: 1.06 | ability of recombinant RTK ligand to confer resistance [31]: 0.93 | ability of recombinant RTK ligand to confer resistance [32]: 0.99 | ability of recombinant RTK ligand to confer resistance (G-361, PLX4720 - 2 uM, ligand 400 ng/ml): 1.14 | ability of recombinant RTK ligand to confer resistance [33]: 0.96 | ability of recombinant RTK ligand to confer resistance [34]: 0.97 | ability of recombinant RTK ligand to confer resistance [35]: 1.01 | ability of recombinant RTK ligand to confer resistance [36]: 1.06 | ability of recombinant RTK ligand to confer resistance (SK-MEL-5, PD184352 - 1 uM, ligand 400 ng/ml): 1.07 | ability of recombinant RTK ligand to confer resistance [37]: 0.94 | ability of recombinant RTK ligand to confer resistance [38]: 0.91 | ability of recombinant RTK ligand to confer resistance [39]: 0.98 | ability of recombinant RTK ligand to confer resistance [40]: 1.04 | ability of recombinant RTK ligand to confer resistance (SK-MEL-5, PLX4720 - 2 uM, ligand 400 ng/ml): 0.96 | ability of recombinant RTK ligand to confer resistance [41]: 1.09 | ability of recombinant RTK ligand to confer resistance [42]: 1.08 | ability of recombinant RTK ligand to confer resistance [43]: 1.05 | ability of recombinant RTK ligand to confer resistance [44]: 1.08 | ability of recombinant RTK ligand to confer resistance (SK-MEL-28, PD184352 - 1 uM, ligand 400 ng/ml): 1.22 | ability of recombinant RTK ligand to confer resistance [45]: 0.92 | ability of recombinant RTK ligand to confer resistance [46]: 1.18 | ability of recombinant RTK ligand to confer resistance [47]: 1.09 | ability of recombinant RTK ligand to confer resistance [48]: 1.09 | ability of recombinant RTK ligand to confer resistance (SK-MEL-28, PLX4720 - 2 uM, ligand 400 ng/ml): 1.19
